This passage reports IC50 results from patent US20230019491A1, “PYRIMIDINE TBK/IKKe INHIBITOR COMPOUNDS AND USES THEREOF” (Merck Patent GmbH, priority 2017, published 2023).

In one experiment the target is T1, IKKε (Homo sapiens, UniProt Q14164).
T1 sequence (Q14164 1-716): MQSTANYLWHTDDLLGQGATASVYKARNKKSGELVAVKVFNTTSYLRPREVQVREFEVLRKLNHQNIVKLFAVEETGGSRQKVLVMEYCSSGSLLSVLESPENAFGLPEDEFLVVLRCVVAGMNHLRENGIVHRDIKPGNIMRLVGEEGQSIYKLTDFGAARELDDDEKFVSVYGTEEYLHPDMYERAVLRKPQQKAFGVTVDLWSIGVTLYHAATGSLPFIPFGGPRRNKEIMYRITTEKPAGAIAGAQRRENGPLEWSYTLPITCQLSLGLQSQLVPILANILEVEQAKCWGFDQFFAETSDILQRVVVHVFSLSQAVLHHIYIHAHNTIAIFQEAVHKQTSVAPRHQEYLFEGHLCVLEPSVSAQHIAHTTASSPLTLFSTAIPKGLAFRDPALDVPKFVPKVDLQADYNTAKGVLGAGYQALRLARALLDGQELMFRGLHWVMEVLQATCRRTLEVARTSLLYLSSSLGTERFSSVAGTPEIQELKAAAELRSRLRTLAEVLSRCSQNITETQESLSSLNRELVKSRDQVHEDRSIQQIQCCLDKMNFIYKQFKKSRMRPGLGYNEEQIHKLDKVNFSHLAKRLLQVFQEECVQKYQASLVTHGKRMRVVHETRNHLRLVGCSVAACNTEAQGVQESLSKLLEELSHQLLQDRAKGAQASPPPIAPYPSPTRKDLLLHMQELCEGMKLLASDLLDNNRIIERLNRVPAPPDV
In words: IKKε biochemical assay. Particulars: 10 point 1:4 dose response, 30 uM top concentration, 90 min at 25° C., LabChip EZ Reader II; read-out: IKKε_IC50. The method in brief:
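Mobility-shift LabChip read-out followed a 90 min, 25° C. reaction of IKKε with substrate and test compound, with DMSO held at 1% final. Reactions were ended with stop buffer. Wells with 10 uM final staurosporine defined complete inhibition, and DMSO-only wells the uninhibited level.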

The next experiment deals with T2, TBK1 (Homo sapiens, UniProt Q9UHD2).
T2 sequence (Q9UHD2 1-729): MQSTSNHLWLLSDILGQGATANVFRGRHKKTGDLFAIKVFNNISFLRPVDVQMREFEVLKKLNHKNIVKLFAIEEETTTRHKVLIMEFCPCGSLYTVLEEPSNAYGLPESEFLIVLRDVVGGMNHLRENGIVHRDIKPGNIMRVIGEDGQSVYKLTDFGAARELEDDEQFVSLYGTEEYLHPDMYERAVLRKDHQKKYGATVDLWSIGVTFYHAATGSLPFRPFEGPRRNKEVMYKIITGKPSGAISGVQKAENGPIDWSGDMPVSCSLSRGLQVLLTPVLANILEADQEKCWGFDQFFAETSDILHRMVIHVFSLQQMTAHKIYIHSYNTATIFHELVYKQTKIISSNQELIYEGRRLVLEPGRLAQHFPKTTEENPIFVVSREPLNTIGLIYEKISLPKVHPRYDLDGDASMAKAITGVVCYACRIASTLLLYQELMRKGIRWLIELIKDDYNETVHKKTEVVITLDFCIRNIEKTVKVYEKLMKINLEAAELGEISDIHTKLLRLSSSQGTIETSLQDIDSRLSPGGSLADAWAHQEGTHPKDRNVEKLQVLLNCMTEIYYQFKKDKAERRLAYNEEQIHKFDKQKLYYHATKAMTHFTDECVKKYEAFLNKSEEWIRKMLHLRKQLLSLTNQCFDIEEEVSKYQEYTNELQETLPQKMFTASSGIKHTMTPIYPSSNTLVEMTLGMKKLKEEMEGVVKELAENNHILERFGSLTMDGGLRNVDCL
In words: TBK biochemical assay. The note with it: 10 point 1:4 dose response, 30 uM top concentration, 90 min at 25° C., LabChip EZ Reader II; read-out: TBK1_IC50. The procedure, abridged:
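Read-out was a Caliper LabChip mobility-shift assay, run after a 90-min, 25 °C reaction of TBK1 with substrate and compounds, quenched with stop buffer. Control wells received staurosporine at 10 uM final.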

Each structure is given as a SMILES string. Structures can show the parent of a compound that is named as a salt.

With `COc1cc(N2CCN(C3COC3)CC2)ccc1Nc1nccc(-c2ccc(OC3CCN(C(=O)[C@H](C)O)CC3(F)F)c(C#N)c2)n1` (stereo partly drawn) [Example 228, 2-([33-difluoro-1-[(2S)-2-hydroxypropanoyl]piperidin-4-yl]oxy)-5-[2-([2-methoxy-4-[4-(oxetan-3-yl)piperazin-1-yl]phenyl]amino)pyrimidin-4-yl]benzonitrile], the IC50 at IKKε and on TBK1 was under 100 nM each time.

Regarding `COc1nc(Nc2nccc(-c3ccc(OC4CCN(C(=O)[C@@H](O)CO)CC4(F)F)c(C#N)c3)n2)ccc1C1CCN(C2COC2)CC1` (stereo partly drawn) [Example 153, 2-[1-((S)-2,3-Dihydroxy-propionyl)-3,3-difluoro-piperidin-4-yloxy]-5-[2-(2-methoxy-1′-oxetan-3-yl-1′,2′,3′,4′,5′,6′-hexahydro-[3,4′]bipyridinyl-6-ylamino)-pyrimidin-4-yl]-benzonitrile], the IC50 at IKKε and on TBK1 was under 100 nM throughout.

Take `COc1cc(Nc2nccc(-c3ccc(OC4CCOCC4)c(C#N)c3)n2)ncc1C1CCN(C)CC1` [Example 59, 5-(2-[[4-methoxy-5-(1-methylpiperidin-4-yl)pyridin-2-yl]amino]pyrimidin-4-yl)-2-(oxan-4-yloxy)benzonitrile hydrochloride]: the IC50 on IKKε was under 100 nM; on TBK1, 100 to 1000 nM.

As for `COc1nc(Nc2nccc(-c3ccc(N4CCC5(CC4)CN(C(=O)[C@H](C)O)C5)c(C#N)c3)n2)ccc1N1CCN(C2COC2)CC1` [Example 316, 2-[2-((S)-2-Hydroxy-propionyl)-2,7-diaza-spiro[3.5]non-7-yl]-5-{2-[6-methoxy-5-(4-oxetan-3-yl-piperazin-1-yl)-pyridin-2-ylamino]-pyrimidin-4-yl}-benzonitrile], the IC50 on IKKε and on TBK1 was under 100 nM each time.

Turning to `Cc1nc(C(=O)N2CCC(Oc3ccc(-c4ccnc(Nc5ccc(N6CCN(C)CC6)cc5)n4)cc3C#N)CC2)n[nH]1` [Example 203, 2-[[1-(5-methyl-1H-1,2,4-triazole-3-carbonyl)piperidin-4-yl]oxy]-5-(2-[[4-(4-methylpiperazin-1-yl)phenyl]amino]pyrimidin-4-yl)benzonitrile], the IC50 at IKKε and on TBK1 was under 100 nM in each case.

For the molecule `COc1nc(Nc2nccc(-c3ccc(O[C@H]4CCNC[C@H]4F)c(C#N)c3)n2)ccc1N1CCN(C)CC1` [Example 95], the IC50 at IKKε and on TBK1 was under 100 nM throughout.

For `COc1nc(Nc2nccc(-c3ccc(OC4CCN(C(=O)CO)CC4(F)F)c(C#N)c3)n2)ccc1C1CCN(C)CC1` (stereo not drawn) [Example 234, 2-[[3,3-difluoro-1-(2-hydroxyacetyl)piperidin-4-yl]oxy]-5-(2-[[6-methoxy-5-(l-methylpiperidin-4-yl)pyridin-2-yl]amino]pyrimidin-4-yl)benzonitrile], the IC50 at IKKε and on TBK1 was under 100 nM in each case.

Turning to `COc1nc(Nc2nccc(-c3ccc(OC4CCN(C(=O)[C@@H](O)C(C)C)CC4(F)F)c(C#N)c3)n2)ccc1C1CCN(C2COC2)CC1` (stereo partly drawn) [Example 236, 2-[3,3-Difluoro-1-((S)-2-hydroxy-3-methyl-butyryl)-piperidin-4-yloxy]-5-[2-(2-methoxy-1′-oxetan-3-yl-1′,2′,3′,4′,5′,6′-hexahydro-[3,4′]bipyridinyl-6-ylamino)-pyrimidin-4-yl]-benzonitrile], the IC50 on IKKε and at TBK1 was under 100 nM in each case.

Regarding `C[C@@H](O)C(=O)N1CCC(Oc2ccc(-c3ccnc(Nc4ccncc4)n3)cc2C#N)C(F)(F)C1` (stereo partly drawn) [Example 208, 2-([3,3-difluoro-1-[(2R)-2-hydroxypropanoyl]piperidin-4-yl]oxy)-5-[2-[(pyridin-4-yl)amino]pyrimidin-4-yl]benzonitrile], the IC50 at IKKε and at TBK1 was under 100 nM throughout.

Regarding `COc1nc(Nc2nccc(-c3ccc(OC4CCN(C(=O)C(C)O)CC4(F)F)c(C#N)c3)n2)ccc1N1CCN(C2COC2)CC1` (stereo in doubt) [Example 261, 2-([3,3-difluoro-1-[(2S)-2-hydroxypropanoyl]piperidin-4-yl]oxy)-5-[2-([6-methoxy-5-[4-(oxetan-3-yl)piperazin-1-yl]pyridin-2-yl]amino)pyrimidin-4-yl]benzonitrile], the IC50 on IKKε and at TBK1 was under 100 nM throughout.

In the case of `COc1nc(Nc2nccc(-c3ccc(OCC4CN(C(=O)[C@H](C)O)C4)c(C#N)c3)n2)ccc1N1CCN(C2COC2)CC1` [Example 279, 2-([1-[(2S)-2-hydroxypropanoyl]azetidin-3-yl]methoxy)-5-[2-([6-methoxy-5-[4-(oxetan-3-yl)piperazin-1-yl]pyridin-2-yl]amino)pyrimidin-4-yl]benzonitrile], the IC50 on IKKε is 100 to 1000 nM; at TBK1, under 100 nM.

With `COc1cc(Nc2nccc(-c3ccc(OC4CCN(C(=O)[C@@H](C)O)CC4(F)F)c(C#N)c3)n2)ccc1C1CCN(C2COC2)CC1` (stereo partly drawn) [Example 227, 2-([3,3-difluoro-1-[(2R)-2-hydroxypropanoyl]piperidin-4-yl]oxy)-5-[2-([3-methoxy-4-[1-(oxetan-3-yl)piperidin-4-yl]phenyl]amino)pyrimidin-4-yl]benzonitrile], the IC50 on IKKε and on TBK1 was under 100 nM in each case.

Consider `CC[C@H](O)C(=O)N1CCC(Oc2ccc(-c3ccnc(Nc4ccc(N5CCN(C6COC6)CC5)c(OC)n4)n3)cc2C#N)C(F)(F)C1` (stereo partly drawn) [Example 258, 2-[3,3-Difluoro-1-((S)-2-hydroxy-butyryl)-piperidin-4-yloxy]-5-{2-[6-methoxy-5-(4-oxetan-3-yl-piperazin-1-yl)-pyridin-2-ylamino]-pyrimidin-4-yl}-benzonitrile], for which the IC50 at IKKε and on TBK1 was under 100 nM throughout.

On to `COc1nc(Nc2nccc(-c3ccc(OC4CN(C)C4)c(C#N)c3)n2)ccc1N1CCN(C)CC1` [Example 86, 5-(2-[[6-methoxy-5-(4-methylpiperazin-1-yl)pyridin-2-yl]amino]pyrimidin-4-yl)-2-[(1-methylazetidin-3-yl)oxy]benzonitrile], for which the IC50 at IKKε and on TBK1 was 100 to 1000 nM throughout.

Turning to `N#Cc1cc(-c2ccnc(Nc3cccc(C4CCN(C5COC5)CC4)c3)n2)ccc1OC1CCN(C(=O)CO)CC1(F)F` (stereo not shown) [Example 223, 2-[3,3-Difluoro-1-(2-hydroxy-acetyl)-piperidin-4-yloxy]-5-{2-[3-(1-oxetan-3-yl-piperidin-4-yl)-phenylamino]-pyrimidin-4-yl}-benzonitrile], the IC50 on IKKε and at TBK1 was under 100 nM each time.

For `C[C@H](O)C(=O)N1CCC(Oc2ccc(-c3ccnc(Nc4cccc(C5CCN(C6COC6)CC5)c4)n3)cc2C#N)C(F)(F)C1` (stereo partly drawn) [Example 224, 2-[3,3-Difluoro-1-((S)-2-hydroxy-propionyl)-piperidin-4-yloxy]-5-{2-[3-(1-oxetan-3-yl-piperidin-4-yl)-phenylamino]-pyrimidin-4-yl}-benzonitrile], the IC50 at IKKε and at TBK1 was under 100 nM throughout.

`COc1cc(Nc2nccc(-c3cc(C#N)c(OC4CCOCC4)cn3)n2)cnc1C(=O)N(C)C` [Example 52, 5-([4-[4-cyano-5-(oxan-4-yloxy)pyridin-2-yl]pyrimidin-2-yl]amino)-3-methoxy-N,N-dimethylpyridine-2-carboxamide]: the IC50 at IKKε and on TBK1 was 1000 to 5000 nM throughout.
